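Tested at 5 concentrations; 48 h exposure; 96-well plates; endpoints linearly interpolated, else capped at highest concentration. Abbreviation: GI50, concentration required for 50% inhibition of growth. The concentration for full growth arrest is given as TGI.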
How the values were obtained:
Test in all cases: inhibition of tumour cell growth, NCI panel, 48 h
TK-10 renal = system: TK-10 renal
MDA-MB-435 = system: MDA-MB-435
A498 renal = system: A498 renal
SF-295 CNS = system: SF-295 CNS
HCT-116 colon = system: HCT-116 colon
SN12C renal = system: SN12C renal
SK-OV-3 ovarian = system: SK-OV-3 ovarian
HCC-2998 colon = system: HCC-2998 colon
A549 NSCLC = system: A549 NSCLC
ACHN renal = system: ACHN renal
M14 melanoma = system: M14 melanoma
OVCAR-3 ovarian = system: OVCAR-3 ovarian
SK-MEL-2 melanoma = system: SK-MEL-2 melanoma
LOX IMVI melanoma = system: LOX IMVI melanoma
RXF 393 renal = system: RXF 393 renal
SF-539 CNS = system: SF-539 CNS
EKVX NSCLC = system: EKVX NSCLC
HS 578T breast = system: HS 578T breast
T-47D breast = system: T-47D breast
SK-MEL-5 melanoma = system: SK-MEL-5 melanoma
NCI-H226 lung = system: NCI-H226 lung
U251 CNS = system: U251 CNS
SR leukemia = system: SR leukemia
HL-60(TB) leukemia = system: HL-60(TB) leukemia
MALME-3M melanoma = system: MALME-3M melanoma
SW-620 colon = system: SW-620 colon
RPMI-8226 leukemia = system: RPMI-8226 leukemia
SK-MEL-28 melanoma = system: SK-MEL-28 melanoma
CCRF-CEM leukemia = system: CCRF-CEM leukemia
UACC-257 melanoma = system: UACC-257 melanoma
PC-3 prostate = system: PC-3 prostate
DU-145 prostate = system: DU-145 prostate
KM12 colon = system: KM12 colon
OVCAR-8 ovarian = system: OVCAR-8 ovarian
OVCAR-4 ovarian = system: OVCAR-4 ovarian
MCF7 breast = system: MCF7 breast
OVCAR-5 ovarian = system: OVCAR-5 ovarian
HOP-92 NSCLC = system: HOP-92 NSCLC
SNB-75 CNS = system: SNB-75 CNS
UACC-62 melanoma = system: UACC-62 melanoma
UO-31 renal = system: UO-31 renal
K-562 leukemia = system: K-562 leukemia
MDA-MB-231 breast = system: MDA-MB-231 breast
HCT-15 colon = system: HCT-15 colon
786-0 renal = system: 786-0 renal
NCI/ADR-RES ovarian = system: NCI/ADR-RES ovarian
IGROV1 ovarian = system: IGROV1 ovarian
BT-549 breast = system: BT-549 breast
COLO 205 colon = system: COLO 205 colon
SF-268 CNS = system: SF-268 CNS
HT29 colon = system: HT29 colon
NCI-H460 lung = system: NCI-H460 lung
SNB-19 CNS = system: SNB-19 CNS
CAKI-1 renal = system: CAKI-1 renal
MOLT-4 leukemia = system: MOLT-4 leukemia
HOP-62 NSCLC = system: HOP-62 NSCLC
NCI-H522 lung = system: NCI-H522 lung

CC[C@H](CO)Nc1ccc2ncc(C#Cc3cncc(C(=O)Nc4ccc(CN5CCN(C)CC5)c(C(F)(F)F)c4)c3)n2n1 gave a GI50 (TK-10 renal) of 1000 nM, a TGI (TK-10 renal) of 2450 nM and a GI50 (MDA-MB-435) of 451 nM. It also gave a TGI (MDA-MB-435) of 1090 nM, a GI50 (A498 renal) of 266 nM and a TGI (A498 renal) of 721 nM. The GI50 (SF-295 CNS) was 555 nM, the TGI (SF-295 CNS) was 1600 nM and the GI50 (HCT-116 colon) was 170 nM. For the same compound, the TGI (HCT-116 colon) was 662 nM, the GI50 (SN12C renal) was 160 nM and the TGI (SN12C renal) was 1030 nM. It also gave a GI50 (SK-OV-3 ovarian) of 1190 nM, a TGI (SK-OV-3 ovarian) of 2780 nM and a GI50 (HCC-2998 colon) of 703 nM. For the same compound, the TGI (HCC-2998 colon) was 1690 nM, the GI50 (A549 NSCLC) was 356 nM and the TGI (A549 NSCLC) was 1450 nM. For the same compound, the GI50 (ACHN renal) was 442 nM, the TGI (ACHN renal) was 1130 nM and the GI50 (M14 melanoma) was 322 nM. It also gave a TGI (M14 melanoma) of 1010 nM, a GI50 (OVCAR-3 ovarian) of 576 nM and a TGI (OVCAR-3 ovarian) of 1630 nM. The GI50 (SK-MEL-2 melanoma) was 470 nM, the TGI (SK-MEL-2 melanoma) was 1210 nM and the GI50 (LOX IMVI melanoma) was 206 nM. For the same compound, the TGI (LOX IMVI melanoma) was 817 nM, the GI50 (RXF 393 renal) was 273 nM and the TGI (RXF 393 renal) was 910 nM. It also gave a GI50 (SF-539 CNS) of 45.4 nM, a TGI (SF-539 CNS) of 266 nM and a GI50 (EKVX NSCLC) of 391 nM. It also gave a TGI (EKVX NSCLC) of 1620 nM, a GI50 (HS 578T breast) of 200 nM and a TGI (HS 578T breast) of 1070 nM. It also gave a GI50 (T-47D breast) of 900 nM, a TGI (T-47D breast) of 2920 nM and a GI50 (SK-MEL-5 melanoma) of 766 nM. The TGI (SK-MEL-5 melanoma) was 1460 nM, the GI50 (NCI-H226 lung) was 205 nM and the TGI (NCI-H226 lung) was 1170 nM. For the same compound, the GI50 (U251 CNS) was 580 nM, the TGI (U251 CNS) was 1310 nM and the GI50 (SR leukemia) was 196 nM. It also gave a TGI (SR leukemia) of 888 nM, a GI50 (HL-60(TB) leukemia) of 218 nM and a TGI (HL-60(TB) leukemia) of 648 nM. The GI50 (MALME-3M melanoma) was 660 nM, the TGI (MALME-3M melanoma) was 1430 nM and the GI50 (SW-620 colon) was 186 nM. It also gave a TGI (SW-620 colon) of 803 nM, a GI50 (RPMI-8226 leukemia) of 577 nM and a TGI (RPMI-8226 leukemia) of 1800 nM. It also gave a GI50 (SK-MEL-28 melanoma) of 681 nM, a TGI (SK-MEL-28 melanoma) of 1490 nM and a GI50 (CCRF-CEM leukemia) of 188 nM. The TGI (CCRF-CEM leukemia) was 1370 nM, the GI50 (UACC-257 melanoma) was 760 nM and the TGI (UACC-257 melanoma) was 1530 nM. It also gave a GI50 (PC-3 prostate) of 670 nM, a TGI (PC-3 prostate) of 2800 nM and a GI50 (DU-145 prostate) of 579 nM. The TGI (DU-145 prostate) was 1430 nM, the GI50 (KM12 colon) was 16.5 nM and the TGI (KM12 colon) was 1180 nM. For the same compound, the GI50 (OVCAR-8 ovarian) was 589 nM, the TGI (OVCAR-8 ovarian) was 1320 nM and the GI50 (OVCAR-4 ovarian) was 507 nM. The TGI (OVCAR-4 ovarian) was 2540 nM, the GI50 (MCF7 breast) was 163 nM and the TGI (MCF7 breast) was 807 nM. The GI50 (OVCAR-5 ovarian) was 553 nM, the TGI (OVCAR-5 ovarian) was 2070 nM and the GI50 (HOP-92 NSCLC) was 70 nM. For the same compound, the TGI (HOP-92 NSCLC) was 307 nM, the GI50 (SNB-75 CNS) was 48.4 nM and the TGI (SNB-75 CNS) was 314 nM. The GI50 (UACC-62 melanoma) was 767 nM, the TGI (UACC-62 melanoma) was 1570 nM and the GI50 (UO-31 renal) was 940 nM. It also gave a TGI (UO-31 renal) of 2140 nM, a GI50 (K-562 leukemia) of 15.8 nM and a TGI (K-562 leukemia) of 636 nM. For the same compound, the GI50 (MDA-MB-231 breast) was 142 nM, the TGI (MDA-MB-231 breast) was 903 nM and the GI50 (HCT-15 colon) was 813 nM. The TGI (HCT-15 colon) was 2070 nM, the GI50 (786-0 renal) was 362 nM and the TGI (786-0 renal) was 1080 nM. For the same compound, the GI50 (NCI/ADR-RES ovarian) was 5850 nM, the TGI (NCI/ADR-RES ovarian) was 13400 nM and the GI50 (IGROV1 ovarian) was 152 nM. For the same compound, the TGI (IGROV1 ovarian) was 835 nM, the GI50 (BT-549 breast) was 580 nM and the TGI (BT-549 breast) was 1670 nM. The GI50 (COLO 205 colon) was 126 nM, the TGI (COLO 205 colon) was 319 nM and the GI50 (SF-268 CNS) was 246 nM. It also gave a TGI (SF-268 CNS) of 1220 nM, a GI50 (HT29 colon) of 221 nM and a TGI (HT29 colon) of 933 nM. For the same compound, the GI50 (NCI-H460 lung) was 423 nM, the TGI (NCI-H460 lung) was 1140 nM and the GI50 (SNB-19 CNS) was 880 nM. The TGI (SNB-19 CNS) was 3280 nM, the GI50 (CAKI-1 renal) was 349 nM and the TGI (CAKI-1 renal) was 1110 nM. The GI50 (MOLT-4 leukemia) was 239 nM, the TGI (MOLT-4 leukemia) was 1940 nM and the GI50 (HOP-62 NSCLC) was 288 nM. It also gave a TGI (HOP-62 NSCLC) of 1090 nM, a GI50 (NCI-H522 lung) of 238 nM and a TGI (NCI-H522 lung) of 997 nM.
